How the values were obtained:
[1] = target: T1, CK2 holoenzyme (Homo sapiens, UniProt P68400); test: Autophosphorylation of CK2β by CK2 holoenzyme; assay type: biochemical; conditions: increasing concentrations of compound
T1 construct: made in house; host or cells: Escherichia coli (CK2α)
Method: Fig. S3. Compound 1 inhibits CK2β-dependent phosphorylation of Olig2 transcription factor and CK2β-dependent autophosphorylation. (a) CK2α (200 nM) was incubated with increasing concentrations of CK2β in the absence or presence of compound 1 (50 μM) followed by the addition of GST-Olig2 (3.7 μg), [γ^32P]-ATP (100 μM, 1 μCi) and MgCl2 (10 mM). Samples were analyzed by SDS PAGE and subjected to autoradiography. Left and right parts of the image are from the same gel (see Supplementary Fig. S16). (b) ^32P incorporated into GST-Olig2 was determined by densitometry scanning and is expressed as arbitrary units; (c) CK2β (300 nM) was incubated with increasing concentrations of compound 1, 10 μM [γ^32P] ATP and 10 mM MgCl2. Autophosphorylation was initiated by the addition of 300 nM CK2α. Phosphorylated proteins were separated by SDS/PAGE and analyzed by autoradiography (c) or Coomassie Blue staining (d); ^32P incorporation into CK2β was quantified and expressed as arbitrary units (e). Uncropped blots are shown in Supplementary Fig. S16.

[2] = target: T2, CK2α2β2 (Homo sapiens, UniProt P68400); test: Kinase selectivity profiling (Millipore Kinase profiler); assay type: biochemical; conditions: 100 μM compound; 10 μM ATP
T2 construct: purchased Millipore (Upstate Kinase Profiler Panel Service)
T2 sequence (P68400 whole entry): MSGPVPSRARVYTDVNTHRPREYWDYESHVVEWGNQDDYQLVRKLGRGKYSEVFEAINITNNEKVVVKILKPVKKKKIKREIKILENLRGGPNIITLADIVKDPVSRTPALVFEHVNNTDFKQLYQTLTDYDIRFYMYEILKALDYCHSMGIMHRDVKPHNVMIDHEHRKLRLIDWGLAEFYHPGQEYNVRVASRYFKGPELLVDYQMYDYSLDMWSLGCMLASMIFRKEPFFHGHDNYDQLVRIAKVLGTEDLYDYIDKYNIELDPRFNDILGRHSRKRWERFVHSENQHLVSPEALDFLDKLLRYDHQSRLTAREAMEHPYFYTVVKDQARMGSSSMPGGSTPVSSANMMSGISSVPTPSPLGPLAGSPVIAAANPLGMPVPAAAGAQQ
Method: (§1) Kinase selectivity of compound 1 was assessed using a panel of 45 recombinant protein kinases. The assays were performed at 10 μM ATP in the presence of 100 μM inhibitor using the Kinase profiler panel service (Millipore). Inhibition, expressed as the percent of activity determined in the absence of inhibitor, was calculated from the residual activity measured in the presence of 100 μM inhibitor.
(§2) Fig. S4. Kinase selectivity profile of compound 1 on a panel of 45 different protein kinases. The assays were performed at 10 μM ATP in the presence of 100 μM compound 1 using the Upstate Kinase Profiler Panel Service (Millipore). Residual activity in presence of 100 μM compound 1 are depicted in (a) and a graphical representation of the inhibition percentage in the presence of 100 μM compound 1 is shown in (b).

[3] = target: T3, Pim-1 (Homo sapiens, UniProt P11309); test: as above; assay type: biochemical; conditions: 100 μM compound; 10 μM ATP
T3 construct: purchased Millipore (Upstate Kinase Profiler Panel Service)
T3 sequence (P11309 whole entry): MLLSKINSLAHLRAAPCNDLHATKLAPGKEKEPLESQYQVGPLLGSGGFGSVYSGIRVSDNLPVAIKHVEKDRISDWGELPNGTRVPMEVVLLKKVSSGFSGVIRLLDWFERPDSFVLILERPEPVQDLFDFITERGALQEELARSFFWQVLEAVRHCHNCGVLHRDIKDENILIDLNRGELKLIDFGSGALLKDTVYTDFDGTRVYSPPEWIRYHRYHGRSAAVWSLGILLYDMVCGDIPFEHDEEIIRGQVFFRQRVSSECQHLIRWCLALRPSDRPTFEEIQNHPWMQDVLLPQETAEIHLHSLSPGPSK
Method: as §1, §2

[4] = target: CK2α (Homo sapiens, UniProt P68400); test: as above; assay type: biochemical; conditions: 100 μM compound; 10 μM ATP
Chain of CK2α (P68400 whole entry): as the sequence (P68400 whole entry) above
Method: as §1, §2

[5] = target: T4, CHK2 (Homo sapiens, UniProt O96017); test: as above; assay type: biochemical; conditions: 100 μM compound; 10 μM ATP
T4 construct: purchased Millipore (Upstate Kinase Profiler Panel Service)
T4 sequence (O96017 whole entry): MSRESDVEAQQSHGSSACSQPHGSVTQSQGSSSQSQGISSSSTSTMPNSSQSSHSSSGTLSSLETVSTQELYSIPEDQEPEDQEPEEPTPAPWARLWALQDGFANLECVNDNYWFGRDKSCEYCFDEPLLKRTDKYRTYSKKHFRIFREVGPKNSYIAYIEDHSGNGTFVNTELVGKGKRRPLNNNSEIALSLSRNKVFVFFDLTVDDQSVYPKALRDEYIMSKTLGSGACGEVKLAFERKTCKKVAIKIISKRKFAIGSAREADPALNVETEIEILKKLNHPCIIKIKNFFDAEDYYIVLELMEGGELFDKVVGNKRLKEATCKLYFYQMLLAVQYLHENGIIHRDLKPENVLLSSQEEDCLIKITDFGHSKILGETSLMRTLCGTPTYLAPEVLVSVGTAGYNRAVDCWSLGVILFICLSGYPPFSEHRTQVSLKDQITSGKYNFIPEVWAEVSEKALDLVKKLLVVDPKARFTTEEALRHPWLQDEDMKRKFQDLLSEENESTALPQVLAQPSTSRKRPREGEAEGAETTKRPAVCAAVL
Method: as §1, §2

[6] = system: PARP cleavage in MCF10A cells; test: Western blot of PARP cleavage; assay type: cell-based, human; conditions: 24 h, 25 μM 6 or 30 μM TAT-Pc
Method: Figure 5 Cellular effects of compounds 3, 4 and 6. MCF10A cells were incubated for 24 h with either DMSO or 30 μM TAT or 30 μM TAT-Pc or 25 μM 6 (a) or with increasing concentrations of 6 (b) or 3 (c). MCF10A cells were incubated for 48 h with either DMSO or with increasing concentrations of 3 or 6 (d). Cells were then lysed and analyzed by western blot with the indicated antibodies. Blot images are representative of at least three independent experiments. Uncropped blots are shown in Supplementary Fig. S16. (e) MDA-MB231 cells were treated with 40 μM 6 (⚬), 4 (▴) or 3 (X). (f) MDA-MB231 cells were treated for 30 h with increasing concentrations of 6 (⚬) or 4 (▴). Insert: cells were treated for 30 h with 80 μM 6 or 10 μM CX-4945. […] Cell death was automatically quantified from images captured every 3 h for the duration of the experiments using an Essen IncuCyte Zoom live-cell microscopy incubator. […]
Cells were lysed in RIPA buffer (10 mM Tris-HCl pH 7.4, 150 mM NaCl, 1% Triton X-100, 0.1% SDS, 0.5% DOC and 1 mM EDTA) containing both protease- and phosphatase-inhibitor cocktails (Sigma-Aldrich; P8340, P2850, P5726). Cell homogenates were quantified using BCA protein Assay kit (Thermo Scientific). […] Luminata Forte Western HRP substrate (Millipore) was added and membranes were read with Fusion Fx7 (PerkinElmer). […] Images were analyzed and band intensities were quantified using ImageJ software. […]

T1 sequence (P68400 whole entry): as the sequence (P68400 whole entry) above

SMILES	autophosphorylation of CK2β [1]	inhibition at 100 µM [2] [%]	inhibition at 100 µM [3] [%]	inhibition at 100 µM [4] [%]	inhibition at 100 µM [5] [%]	PARP cleavage [6]
COc1[nH]c2ccc(F)cc2c1C(=O)OCC1CCN(CCNS(C)(=O)=O)CC1 [Compound 1]	dose-dependent decrease	85	36	27	24	–
COc1[nH]c2ccc(F)cc2c1C(=O)OCC1CCN(CCNS(=O)(=O)c2ccccc2)CC1.Cl [Compound 6]	–	–	–	–	–	No significant PARP cleavage
